Here are results for two compounds from patent US20050130906A1, “Amelioration of macular degeneration and other ophthalmic diseases” (priority 2003, published 2005).

In assay [1] the test system is retinal S-antigen-induced experimental autoimmune uveoretinitis (EAU). To be noted: rat model, after systemic injection; Zamir et al. 1999; cited from earlier work.
In assay [2] the test system is blue light-illuminated A2E-laden RPE (ARPE-19 cells). In words: Protection against A2E-mediated blue light damage (MTT assay and two-color fluorescence cell death assay). The format is cell-based. From the text:
The ability of Tempol-H to protect against A2E-mediated blue light damage was examined.
Materials and Methods: ARPE-19 cells that have accumulated A2E in culture were exposed to 430±20 nm light delivered from a halogen source. This wavelength of light is relevant since (i) the excitation maximum of A2E is approximately 430 nm, and (ii) light of this wavelength reaches the RPE in vivo while light of wavelengths longer than 400 nm are not absorbed by the cornea and lens. Cell death in blue light-illuminated A2E-laden RPE was compared with and without pre-treatment (24 hours) with Tempol-H. The loss of cell viability was quantified by: • 1. A calorimetric microtiter assay based on ability of healthy metabolically active cells to cleave the yellow tetrazolium salt MTT to purple formazan crystals. Cell viability was assessed 24 hours after blue light illumination. Triplicate wells were assayed in each of 2 experiments.
2. Two-color fluorescence assay in which the nuclei of all dead cells appear red due to staining by a membrane-impermeant dye (Dead Red nuclei acid stain, Molecular Probes) with the nuclei of all cells stained blue with DAPI. Cell viability was assessed 8 hours after blue light illumination. Replicates were assayed by counting cells within 5 microscopic fields within the area of illumination in each well and 3 wells were assayed per experiment. Data are based on 3 experiments.
A general note: Formazan colour is commonly taken as a measure of viable cells.

For a further assay, the system named is lens epithelial cells. To be noted: Mitchell et al. 1991; Krishna et al. 1991; cited from earlier work.
In the next assay the test system is cataract. To be noted: Zigler et al., U.S. Pat. No. 6,001,853; cited from earlier work.

Regarding `CC1(C)CC(O)CC(C)(C)N1[O]` [tempol, 4-hydroxy-2,2,6,6,-tetramethylpiperidine-1-N-oxyl], the “severity of EAU” value in assay [1] was “reduced the severity”.
Regarding `CC1(C)CC(O)CC(C)(C)N1O` [Tempol-H], the “protection of blue light-illuminated A2E-laden RPE cells” value in assay [2] (1 mM, FIG. 2) is listed as “protection”. Further, the “protection against the death of A2E-laden RPE” value in assay [2] (blue light 430±20 nm, 24 hours pre-treatment, FIG. 1 and FIG. 2) is reported as “dose-dependent protection”. The “protection of blue light illuminated A2E-laden RPE cells” value in assay [2] (various concentrations, FIG. 1) is reported as “protect”. For the same compound, in the assay on lens epithelial cells, the “protection of lens epithelial cells from oxidative damage” value is listed as “afforded no such protection”. Moreover, the “anti-cataractogenic activity compared with the corresponding nitroxide” value in the assay on cataract is “better anti-cataractogenic composition than the corresponding nitroxide”.
